Laboratory results: patent publication US20240368149A1, “ANALOGS OF XANOMELINE” (Terran Biosciences Inc., priority 2023, published 2024)
Where “and” joins values, the source holds several entries; their conditions need not be identical. Identical values can stand only once.

Experiments:
Format in all cases: in vivo, male Sprague-Dawley (SD) rats
[1] = Rat PK: plasma xanomeline after single subcutaneous (SC) dosing of xanomeline or xanomeline prodrugs at 1 mg/kg (Example A-1); conditions: xanomeline analyte in plasma; for AUC(0-inf): read-out: AUCINF_obs; for half-life: read-out: T½ (converted)
Description: A pharmacokinetic (PK) study was performed in three male Sprague-Dawley (SD) rats following subcutaneous (SC) administration of xanomeline or test compounds (prodrugs of xanomeline) at 1 mg/kg. Parent compound (xanomeline) was measured in plasma.
(§1) Samples were sent for method optimization and measurement of parent compound (xanomeline) via unique calibration lines and following acceptance QC's. Dose formulation concentrations were also measured, and PK parameters were determined (Cmax (ng/mL), Tmax (hr), Cl (ml/min/kg), Vdss (L/kg), t½(hr), AUC0-t (ng/mL*hr), AUC0-inf (ng/mL*hr), MRT (hr), Bioavailability (% F) where warranted) using WinNon Lin software. Data (including bioanalytical results and assay performance) were reported in a tabulated format
• Step 1: A stock solution of the compound(s) were prepared to 1 mg/ml in DMSO • Step 2: A 10,000 ng/mL matched matrix standard was prepared using the stock solution(s) • Step 3: Calibration standards in matched matrix were prepared between 10,000 ng/ml and 0.5 ng/mL using serial dilution • Step 4: QC samples were prepared in matched matrix at 4000, 800, 400, 40 and 10 ng/mL Calibration Standards:
• Step 1: A stock of the IS was diluted to 1 mg/ml in DMSO • Step 2: An ISY is made by diluting the stock to 10 μg/ml in DMSO • Step 3: An ISZ is made by diluting the ISY to 25 ng/ml in 0.1% formic acid in acetonitrile
(§2) • Step 1: Add 10 μL of the standards, QCs and samples to a 96-well plate (extraction plate) • Step 2: To each standard, QC and test sample, add 100 μL of ISZ • Step 3: Sonicate for 2 min then mix the plate for approximately 2 min at 1200 rpm on a plate shaker • Step 4: Centrifuge the plate at 3000 rpm for 5 mins • Step 5: Add 50 μL 0.1% Formic acid in UP H2O to wells of a new 96-well plate • Step 6: Transfer 50 μL extracted sample to relevant position in second 96-well plate • Step 7: Mix at 1200 rpm for 2 minutes • Step 8: Heat seal and analyse on the LC-MS/MS system • Instrument: Xevo TQ-D with CTC Autosampler
• Step 1: A stock solution of the compound(s) were prepared to 1 mg/ml in DMSO • Step 2: A 10,000 ng/mL matched matrix standard was prepared using the stock solution(s) • Step 3: A 2,000 ng/ml matched matrix stock dilution was made from the 10,000 ng/ml stock dilution • Step 4: Standards were prepared at a concentration of 200 ng/ml to 0.01 ng/ml in matched matrix via serial dilution from the second Stock dilution • Step 5: QC samples were prepared in matched matrix at 150, 40, 20, 4 and 0.4 ng/mL Calibration Standards:
as §2, with “min” for “mins”, “formic” for “Formic”, “min” for “minutes”, “TQ-Absolute UHPLC-MS/MS” for “TQ-D with CTC Autosampler”
(§3) Formulation for SC administration: For SC dosing, xanomeline and xanomeline prodrugs were formulated as solution in 10% DMSO/90% HPCD (20% in water) to a concentration of 0.5 mg free metabolite material/mL. This provided a dose of 1 mg free metabolite/kg when administered SC in 2 mL/kg dosing volumes.
(§4) The pharmacokinetic properties of the synthesized xanomeline prodrugs after subcutaneous administration in a rat model were assessed. The concentration of xanomeline was measured in each rat at various sampling timepoints after subcutaneous administration of xanomeline or the synthesized xanomeline prodrugs to rats.
Dose formulations were made at equivalent concentrations of active compound (xanomeline) adjusted for molecular weight of the compounds. The synthesized xanomeline prodrugs were dosed at 1 mg/kg subcutaneous (SC) nominal dose. […]

[2] = Rat PK: plasma xanomeline after subcutaneous (SC) dosing of xanomeline, prodrugs or pamoate salts at 5 mg/kg or 3.5 mg/kg (Example A-2); conditions: parent xanomeline dosed SC; for Tmax / Cmax / AUC(0-inf) / AUC(0-t) / half-life: male, Sprague-Dawley; for AUC(0-inf): read-out: Xanomeline (SC) AUC0-inf; for AUC(0-t): read-out: Xanomeline (SC) AUC0-last; for half-life: read-out: Xanomeline (SC) T1/2 (converted)
Description: as §1, with “t½ (hr),” for “t½(hr),”, “format.” for “format”
as §3, with “of 2.5 mg free metabolite material/mL or 1.75” for “of 0.5”, “of 5” for “of 1”, “metabolite/kg or 3.5 mg free metabolite/kg, respectively,” for “metabolite/kg”
as §4
Dose formulations were made at equivalent concentrations of active compound (xanomeline) adjusted for molecular weight of the compounds. The synthesized xanomeline prodrugs were dosed at 5 mg/kg subcutaneous (SC) nominal dose except for xanomeline oxyisobutyl pivalate chloride prodrug and xanomeline oxypropyl pivalate chloride prodrug, which were dosed at 3.5 mg/kg subcutaneous. Nominal doses were used in PK parameter determinations. The parent compound (xanomeline) was dosed at 5 mg/kg subcutaneous (SC).

[3] = Rat PK: plasma xanomeline after oral (PO) dosing of xanomeline or xanomeline prodrugs at 10 mg/kg (Example A-7); conditions: analyte xanomeline in plasma, 10 mg/kg of xanomeline
Description: as §1, with “t½ (hr),” for “t½(hr),”, “format and QC'd.” for “format”
Compound was dissolved in DMSO:HPCD (20% w/v in water) [10:90] 2 mg API/mL to provide doses of 10 mg API/kg when administered PO in 5 mL/kg dosing volumes.
as §4, with “oral” for “subcutaneous”
Dose formulations were made at equivalent concentrations of active compound (xanomeline) adjusted for molecular weight of the compounds. The synthesized xanomeline prodrugs were dosed at 10 mg/kg oral (PO) nominal dose. Nominal doses were used in PK parameter determinations. The parent compound (xanomeline) was dosed at 10 mg/kg oral (PO).

[4] = male, Sprague-Dawley, plasma, sc, Mean of animals (Table 3)
[5] = male, Sprague-Dawley, plasma, sc, individual animal (Table 3)

In the case of `CCCCCCOc1nsnc1C1=CCCN(C)C1` [Xanomeline, 3-hexyloxy-4-(1-methyl-3,6-dihydro-2H-pyridin-5-yl)-1,2,5-thiadiazole], the Tmax ([1]; male, Sprague-Dawley, in vivo, individual animal (Table 3)) is reported as 0.25 h, the AUC(0-t) [1, 4] is reported as 38.3 ng·h/mL and the AUC(0-inf) [1, 4] is reported as 42 ng·h/mL. It also gave a Cmax ([1]; male, Sprague-Dawley, plasma, sc, Mean of animals (Table 3), read-out: Cmax) of 14.4 ng/mL, a half-life [1, 4] of 1.85 h and an AUC(0-t) [1, 5] of 40.1 ng·h/mL. The AUC(0-inf) [1, 5] was 46 ng·h/mL, the Cmax ([1]; male, Sprague-Dawley, plasma, sc, individual animal (Table 3), read-out: Cmax) was 15.9 ng/mL and the half-life [1, 5] was 2.3 h. The Tmax ([1]; male, Sprague-Dawley, Mean of animals (Table 3)) was 0.25 h, the Tlast ([1]; Mean of animals (Table 3)) was 7.00 h and the AUCINF_obs ([1]; individual animal (Table 3)) was 42.9 ng·h/mL and 37.0 ng·h/mL. For the same molecule, the AUClast ([1]; individual animal (Table 3)) was 40.0 ng·h/mL and 34.9 ng·h/mL, the Cmax ([1]; individual animal (Table 3)) was 15.1 ng/mL and 12.3 ng/mL and the Tlast ([1]; individual animal (Table 3)) was 7.00 h. The T½ ([1]; individual animal (Table 3)) was 1.66 h and 1.58 h, the Tmax ([2]; in vivo, individual animals) was 1 h and the Cmax ([2]; plasma, sc, Mean) was 43 ng/mL. The Tmax ([2]; plasma, sc, Mean) was 0.833 h, the AUC(0-inf) ([2]; plasma, sc, Mean) was 154 ng·h/mL and the AUC(0-t) ([2]; plasma, sc, Mean) was 171 ng·h/mL. For the same molecule, the half-life ([2]; plasma, sc, Mean) was 1.37 h, the Cmax ([2]; plasma, sc, individual animals) was 54.6 ng/mL and the Tmax ([2]; plasma, sc, individual animals) was 0.5 h. It also gave an AUC(0-inf) ([2]; plasma, sc, individual animals) of 185 ng·h/mL, an AUC(0-t) ([2]; plasma, sc, individual animals) of 180 ng·h/mL and a half-life ([2]; plasma, sc, individual animals) of 1.5 h. For the same molecule, the “Xanomeline (SC) Tlast” value ([2]; Mean) was 37.3 h, the “Xanomeline (SC) AUC0-inf” value ([2]; individual animals) was 123 ng·h/mL and the “Xanomeline (SC) AUC0-last” value ([2]; individual animals) was 213 ng·h/mL and 121 ng·h/mL. The “Xanomeline (SC) Cmax” value ([2]; individual animals) was 30.0 ng/mL and 44.4 ng/mL, the “Xanomeline (SC) T1/2” value ([2]; individual animals) was 1.24 h and the “Xanomeline (SC) Tlast” value ([2]; individual animals) was 8.00 h (2×) and 96.0 h.

With “xanomeline methyl hexylcarbonate chloride prodrug” the “Xanomeline Tlast” value ([3]; Mean of 3 animals) was 2.67 h and the “Xanomeline Tlast” value ([3]; individual animal, 10 mg/kg) was 1.00 h and 7.00 h.
